In patent publication US11221329B2, “Treatment of neurological and neurodevelopmental diseases and disorders associated with aberrant ion channel expression and activity” (LIEBER INSTITUTE FOR BRAIN DEVELOPMENT, priority 2015, dated 2022):
“Also recorded” adds a separate entry of the source.

Legend:
[1] = tested on: shCon cells; assay: Whole-cell current-clamp recordings (AP spiking, mAHP/sAHP) in shCon (control shRNA) mPFC layer 2/3 pyramidal neurons, acute brain slices; format: cell-based, rat
Protocol: (§1) Pregnant Wistar rats were obtained from Charles River Laboratories, Inc., maintained by SoBran on a 12-hour light cycle and fed ad libitum. In utero electroporation was performed as previously described (Chen et al., 2014; Maher and Loturco, 2012a). Electroporation was performed on embryonic day 16 (E16) and gestation age was confirmed during surgery. All plasmids were used at a final concentration of 1.5 μg/μl, and the mPFC was targeted for transfection. Pregnant dams were returned to the same housing conditions after recovery from surgery, and after litters were born, transfected rats were used for experiments at days P18-24.
(§2) Acute brain slices were obtained from rats and mice as described previously (Maher and Loturco, 2012b). Briefly, P18-24 male and female animals were deeply anesthetized with isoflurane and transcardially perfused with ice-cold oxygenated (95% O2 and 5% CO2) dissecting buffer containing (in mM): 83 NaCl, 2.5 KCl, 1 NaH2PO4, 26.2 NaHCO3, 22 glucose, 72 sucrose, 0.5 CaCl2, and 3.3 MgCl2. Animals were humanly sacrificed and decapitated and the brains were rapidly removed and immersed in ice-cold oxygenated dissection buffer. Coronal slices (300 μm) were cut using a vibratome (Microm HM650V), incubated in dissection buffer for 30-45 minutes at 34° C., and then stored at room temperature. Slices were visualized using IR differential interference microscopy (DIC) (Olympus BX51WI) and a CCD camera (QICAM, QImaging). Individual layer 2/3 pyramidal cells expressing EGFP in rat brain slices were visualized with epifluorescent illumination and a 43× Olympus LUMPlanFLN (0.8 numerical aperture) objective.
(§3) For all experiments, artificial cerebrospinal fluid (ACSF) was oxygenated (95% O2 and 5% CO2) and contained in (in mM): 125 NaCl, 25 NaHCO3, 1.25 NaH2PO4, 3 KCl, 25 dextrose, 1 MgCl2, and 2 CaCl2, pH 7.3. Patch pipettes were fabricated from borosilicate glass (N51A, King Precision Glass, Inc.) to a resistance of 2-5 MΩ. For current- and voltage-clamp measurements, pipettes were filled with (in mM): 125 potassium gluconate, 10 HEPES, 4 Mg-ATP, 0.3 Na-GTP, 0.1 EGTA, 10 phosophocreatine, 0.05% biocytin, adjusted to pH 7.3 with KOH. For all experiments GABAa receptors were blocked with SR-95531 (Gabazine, 5 μM, Ascent Scientific). For AHP current experiments, synaptic currents were blocked with DL-2-amino-5-phosphopentanoic acid (D,L-AP5, 100 μM, Ascent Scientific), 2,3, dioxo-6-nitro-1,2,3,4, tetrahydrobenzo-quinoxaline-7-sulfonamide (NBQX, 10 μM) and SR-95531 (Gabazine, 5 μM, Ascent Scientific). Ca2+-activated currents were blocked with Tetraethylammonium chloride (TEA, 1 mM, Abcam), apamin (100 nM, Abcam), and carbachol (10 μM, Abcam). Current signals were recorded with either a Multiclamp 700A (Molecular Devices) or with an Axopatch 200B amplifier (Molecular Devices) and were filtered at 2 kHz using a built-in Bessel filter and digitized at 10 kHz. Voltage signals were filtered at 2 kHz and digitized at 10 kHz. Data were acquired using Axograph on a Dell PC. Data acquisition was terminated when series resistance was >15 MΩ. For voltage clamp recordings, pyramidal cells were held at −60 mV. No holding current was used for current-clamp recordings.
(§4) Axograph was used on a Macintosh computer for analysis. To measure spike frequency, EGFP-positive layer 2/3 neurons of the mPFC were injected with a 600 ms depolarizing current pulses ranging from 50 to 500 pA at 50 pA increments with an 10 s inter-trial interval. Each current pulse was measured in triplicate, and the number of resulting APs was averaged. For analysis of fAHP amplitude, the second and third current evoked spikes within the 600 ms pulse were measured. The fAHP potential was measured by subtracting the voltage at the peak of the fAHP from the threshold potential for spike initiation (slope of AP exceeds 50 mV/ms). The mAHP potential was measured at the peak of the AHP that followed the 600 ms current pulse. […]

[2] = tested on: prefrontal neurons from wildtype littermates; assay: Whole-cell current-clamp AP output in prefrontal neurons from wildtype littermates; format: cell-based, mouse
Protocol: (§5) In the mouse model used for Pitt-Hopkins syndrome (Sweatt, 2013) mice are heterozygous for a deletion of the DNA-binding domain of the Transcription Factor 4 (B6; 129-TCF4tm1Zhu/J; stock number 013598, Jackson Laboratory, Bar Harbor, Me.) (Zhuang et al., 1996). Control mouse experiments were conducted with wild-type littermates. Mice were maintained by SoBran on a 12-hour light cycle and fed ad libitum.
(§6) Acute brain slices were obtained from rats and mice as described previously (Maher and Loturco, 2012b). […]
(§7) For all experiments, artificial cerebrospinal fluid (ACSF) was oxygenated (95% O2 and 5% CO2) and contained in (in mM): 125 NaCl, 25 NaHCO3, 1.25 NaH2PO4, 3 KCl, 25 dextrose, 1 MgCl2, and 2 CaCl2, pH 7.3. […] Current signals were recorded with either a Multiclamp 700A (Molecular Devices) or with an Axopatch 200B amplifier (Molecular Devices) and were filtered at 2 kHz using a built-in Bessel filter and digitized at 10 kHz. […]
(§8) Axograph was used on a Macintosh computer for analysis. […] Each current pulse was measured in triplicate, and the number of resulting APs was averaged. For analysis of fAHP amplitude, the second and third current evoked spikes within the 600 ms pulse were measured. The fAHP potential was measured by subtracting the voltage at the peak of the fAHP from the threshold potential for spike initiation (slope of AP exceeds 50 mV/ms). […]

[3] = target: KCNQ1 (Homo sapiens, UniProt P51787); details: KCNQ subtype-selective blocker; Soh and Tzingounis, 2010; cited from earlier work
[4] = tested on: TCF4+/tr cells; assay: Whole-cell current-clamp AP spiking in mPFC layer 2/3 neurons of the PTHS mouse model; format: cell-based
Protocol: as §5, §6, §7, §8

[5] = tested on: shTCF4 cells; assay: Whole-cell current-clamp recordings (AP spiking, mAHP/sAHP) in shTCF4 (TCF4 knockdown) mPFC layer 2/3 pyramidal neurons, acute brain slices; format: cell-based, rat; details: shTCF4 cells
Protocol: as §1, §2, §3, §4

[6] = target: KCNQ2 (Homo sapiens, UniProt O43526); details: KCNQ subtype-selective blocker; Soh and Tzingounis, 2010; cited from earlier work
[7] = tested on: crTCF4 cells; assay: Whole-cell current-clamp AP spiking in crTCF4 (CRISPR-Cas9 TCF4 mutated) mPFC neurons; format: cell-based, rat
Protocol: as §1, §6
(§9) For all experiments, artificial cerebrospinal fluid (ACSF) was oxygenated (95% O2 and 5% CO2) and contained in (in mM): 125 NaCl, 25 NaHCO3, 1.25 NaH2PO4, 3 KCl, 25 dextrose, 1 MgCl2, and 2 CaCl2, pH 7.3. […] Current signals were recorded with either a Multiclamp 700A (Molecular Devices) or with an Axopatch 200B amplifier (Molecular Devices) and were filtered at 2 kHz using a built-in Bessel filter and digitized at 10 kHz.

[8] = tested on: crEmpty cells; assay: Whole-cell current-clamp AP spiking in crEmpty (CRISPR control) mPFC neurons; format: cell-based, rat
Protocol: as §1, §6, §9

SMILES	effect on the frequency of APs (spiking) ([1]; UCL2077, N=8, p=0.35)	amplitude of the sAHP after application ([1]; UCL2077, before −2.60±0.42 mV, N=9, not significant) [mV]	amplitude of the mAHP after application ([1]; UCL2077, before −3.78±0.66 mV, N=9, not significant) [mV]	effect on action potential output ([2]; UCL2077, p=0.58, N=11)	inhibition of KCNQ1 [3]	effect on the frequency of AP spiking ([4]; UCL2077, N=8)	effect on the frequency of APs generated in response to current injections ([5]; UCL2077 10 μM, before vs after, within neuron, significant for current pulses 250-500 pA, N=17, p=0.0002)	amplitude of the sAHP after application ([5]; UCL2077, before −2.88±0.42 mV, N=19, p<0.05) [mV]	amplitude of the mAHP after application ([5]; UCL2077, before −4.43±0.55 mV, N=19, p=0.003) [mV]	inhibition of KCNQ2 [6]	effect on the frequency of APs ([7]; UCL2077, significant for current pulses 400-500 pA, N=7, p=0.045)	effect on AP frequency ([8]; UCL2077, p=0.99)	effect on firing frequency ([1]; A-803467, N=7, p=0.14)	effect on action potential output ([2]; A-803467, p=0.06, N=5)	effect on the frequency of APs ([4]; A-803467, significant for current pulses 250-350 pA, N=8)	effect on the frequency of APs generated in response to increasing current injections ([5]; A-803467 200 nM bath application, significant for current pulses 350-500 pA, N=11, p<0.05)	effect on the frequency of APs ([7]; A-803467, significant for current pulses 400-500 pA, N=8, p=0.039)	effect on AP frequency ([8]; A-803467, p=0.15)
c1ccc(C(NCc2cccnc2)(c2ccccc2)c2ccccc2)cc1 [UCL2077, N-Trityl-3-pyridinemethanamine]	neither UCL2077 (p=0.35) nor JNJ303 (p=0.11) had an effect on spiking	−2.69±0.48	−4.01±0.66	has no effect on action potential output	strongly inhibits	had no effect; also recorded: has no effect on the frequency of AP spiking	effective at increasing the spiking frequency; also recorded: significantly increased firing frequency	−2.53±0.38	−3.736±0.49	strongly inhibits	significantly increased firing frequency	No effect on AP frequency						
COc1cc(NC(=O)c2ccc(-c3ccc(Cl)cc3)o2)cc(OC)c1 [A-803467, 5-(4-Chlorophenyl)-N-(3,5-dimethoxyphenyl)-2-furancarboxamide]													had no effect on firing frequency	has no effect on action potential output	effective at rescuing AP output; also recorded: significantly increased firing frequency	effective at increasing firing frequency; also recorded: significantly increased firing	effective at increasing firing frequency; also recorded: significantly increased firing frequency	had no effect on firing frequency; also recorded: No effect on AP frequency
